ChEMBL document CHEMBL3885861, “Open TG-GATES”

Species: Rattus norvegicus
Assay: Open TG-GATES - Regimen: Daily Repeat
Format: toxicity, organism-based, Sprague-Dawley
Design: regimen Daily Repeat, gender Male, age 6 weeks
Details: in vivo, iv, route intravenous injection; for Bas / Eos / Fbg / Ht / Lym / MCH / MCHC / MCV / Mono / PT / RBC / Ret / WBC: tissue Blood; for KIDNEY_L / KIDNEY_R / KIDNEY_TOTAL: tissue Kidney; for ALP / AST / CRE / DBIL / GLC / IP / K / Na / PL / RALB / TBIL / TG / TP / gamma-GTP / TC: tissue Plasma
[1] = 0 mg/kg, 72 h, dose level Control, time 3 day
[2] = 0 mg/kg, […], dose level Control, time 7 day
[3] = 0 mg/kg, […], dose level Control, time 14 day
[4] = 0 mg/kg, […], dose level Control, time 28 day
[5] = 1 mg/kg, 72 h, dose level High, time 3 day
[6] = 1 mg/kg, […], dose level High, time 7 day
[7] = 1 mg/kg, […], dose level High, time 14 day
[8] = 1 mg/kg, […], dose level High, time 28 day

COc1cccc2c1C(=O)c1c(O)c3c(c(O)c1C2=O)C[C@@](O)(C(=O)CO)C[C@@H]3O[C@H]1C[C@H](N)[C@H](O)[C@H](C)O1 [DOXORUBICIN]
TERMINAL_BW [1]: 230.2 g
Bas [1]: 0%
Eos [1]: 0.8%
Fbg [1]: 276.4 mg/dL
Ht [1]: 37.6%
Lym [1]: 80%
MCH [1]: 21.3 pg
MCHC [1]: 34.2%
MCV [1]: 62.3 fL
Mono [1]: 2.8%
PT [1]: 16.3 s
RBC [1]: 603.8 x10_4/ul
Ret [1]: 5.8%
WBC [1]: 107.3 x10_2/uL
KIDNEY_L [1]: 1 g
KIDNEY_R [1]: 1 g
KIDNEY_TOTAL [1]: 2 g
ALP [1]: 1504.4 IU/L
AST [1]: 70.6 IU/L
CRE [1]: 0.2 mg/dL
DBIL [1]: 0.002 mg/dL
GLC [1]: 193.8 mg/dL
IP [1]: 6.9 mg/dL
K [1]: 4.8 meq/L
Na [1]: 141 meq/L
PL [1]: 141 mg/dL
RALB [1]: 3 g/dL
TBIL [1]: 0.006 mg/dL
TG [1]: 86.6 mg/dL
TP [1]: 5.4 g/dL
gamma-GTP [1]: 1.4 IU/L
TERMINAL_BW [2]: 251.1 g
TERMINAL_BW [3]: 307.3 g
TERMINAL_BW [4]: 382.5 g
Bas [2]: 0%
Eos [2]: 0.6%
Fbg [2]: 285.8 mg/dL
Ht [2]: 38.4%
Lym [2]: 77.4%
MCH [2]: 20.8 pg
MCHC [2]: 35.3%
MCV [2]: 58.9 fL
Mono [2]: 2.8%
PT [2]: 16.5 s
RBC [2]: 652.8 x10_4/ul
Ret [2]: 5.5%
WBC [2]: 121 x10_2/uL
Bas [3]: 0%
Eos [3]: 0.8%
Fbg [3]: 305.6 mg/dL
Ht [3]: 39.4%
Lym [3]: 82.2%
MCH [3]: 20.5 pg
MCHC [3]: 35.8%
MCV [3]: 57 fL
Mono [3]: 2.2%
PT [3]: 16.1 s
RBC [3]: 691.8 x10_4/ul
Ret [3]: 4.8%
WBC [3]: 124.7 x10_2/uL
Bas [4]: 0%
Eos [4]: 1.4%
Fbg [4]: 305.6 mg/dL
Ht [4]: 42.7%
Lym [4]: 85.6%
MCH [4]: 19.6 pg
MCHC [4]: 36.3%
MCV [4]: 54 fL
Mono [4]: 2%
PT [4]: 16.4 s
RBC [4]: 792.2 x10_4/ul
Ret [4]: 2.9%
WBC [4]: 144.2 x10_2/uL
KIDNEY_L [2]: 1.1 g
KIDNEY_R [2]: 1.1 g
KIDNEY_TOTAL [2]: 2.2 g
KIDNEY_L [3]: 1.2 g
KIDNEY_R [3]: 1.2 g
KIDNEY_TOTAL [3]: 2.3 g
KIDNEY_L [4]: 1.4 g
KIDNEY_R [4]: 1.4 g
KIDNEY_TOTAL [4]: 2.7 g
ALP [2]: 1305.8 IU/L
AST [2]: 67 IU/L
CRE [2]: 0.2 mg/dL
DBIL [2]: 0 mg/dL
GLC [2]: 188.2 mg/dL
IP [2]: 7.2 mg/dL
K [2]: 4.5 meq/L
Na [2]: 142.2 meq/L
RALB [2]: 2.9 g/dL
TBIL [2]: 0.014 mg/dL
TC [2]: 74.4 mg/dL
TG [2]: 100.2 mg/dL
TP [2]: 5.3 g/dL
gamma-GTP [2]: 1.2 IU/L
ALP [3]: 1239.2 IU/L
AST [3]: 59.2 IU/L
CRE [3]: 0.2 mg/dL
DBIL [3]: 0 mg/dL
GLC [3]: 203 mg/dL
IP [3]: 6.9 mg/dL
K [3]: 4.4 meq/L
Na [3]: 140.8 meq/L
RALB [3]: 3.1 g/dL
TBIL [3]: 0.018 mg/dL
TC [3]: 69 mg/dL
TG [3]: 129.2 mg/dL
TP [3]: 5.7 g/dL
gamma-GTP [3]: 2.6 IU/L
ALP [4]: 795.8 IU/L
AST [4]: 64.8 IU/L
CRE [4]: 0.3 mg/dL
DBIL [4]: 0 mg/dL
GLC [4]: 186.6 mg/dL
IP [4]: 6.7 mg/dL
K [4]: 4.1 meq/L
Na [4]: 140.6 meq/L
PL [4]: 130.8 mg/dL
RALB [4]: 3.1 g/dL
TBIL [4]: 0.006 mg/dL
TC [4]: 65 mg/dL
TG [4]: 96.2 mg/dL
TP [4]: 6.1 g/dL
gamma-GTP [4]: 1 IU/L
TERMINAL_BW [5]: 213.7 g
Bas [5]: 0%
Eos [5]: 1%
Fbg [5]: 293 mg/dL
Ht [5]: 37.6%
Lym [5]: 83.6%
MCH [5]: 21.4 pg
MCHC [5]: 35%
MCV [5]: 61.1 fL
Mono [5]: 2.4%
PT [5]: 16.3 s
RBC [5]: 616 x10_4/ul
Ret [5]: 1%
WBC [5]: 40.5 x10_2/uL
KIDNEY_L [5]: 0.9 g
KIDNEY_R [5]: 0.9 g
KIDNEY_TOTAL [5]: 1.8 g
ALP [5]: 1562.4 IU/L
AST [5]: 64.4 IU/L
CRE [5]: 0.2 mg/dL
DBIL [5]: 0 mg/dL
GLC [5]: 194.4 mg/dL
IP [5]: 7 mg/dL
K [5]: 4.3 meq/L
Na [5]: 141.4 meq/L
RALB [5]: 3.1 g/dL
TBIL [5]: 0.014 mg/dL
TC [5]: 79 mg/dL
TG [5]: 78.2 mg/dL
TP [5]: 5.6 g/dL
gamma-GTP [5]: 1.4 IU/L
TERMINAL_BW [6]: 236 g
TERMINAL_BW [7]: 244.4 g
TERMINAL_BW [8]: 221.9 g
Bas [6]: 0%
Eos [6]: 1.4%
Fbg [6]: 307.2 mg/dL
Ht [6]: 34.1%
Lym [6]: 84.2%
MCH [6]: 20.5 pg
MCHC [6]: 36.1%
MCV [6]: 56.8 fL
Mono [6]: 2.4%
PT [6]: 16.1 s
RBC [6]: 600.6 x10_4/ul
Ret [6]: 0.06%
WBC [6]: 32.9 x10_2/uL
Bas [7]: 0%
Eos [7]: 0.4%
Fbg [7]: 315.6 mg/dL
Ht [7]: 31.5%
Lym [7]: 76.8%
MCH [7]: 20.6 pg
MCHC [7]: 37.1%
MCV [7]: 55.7 fL
Mono [7]: 1%
RBC [7]: 566.8 x10_4/ul
Ret [7]: 0.04%
WBC [7]: 14.2 x10_2/uL
Bas [8]: 0%
Eos [8]: 0.5%
Fbg [8]: 669 mg/dL
Lym [8]: 31.5%
MCH [8]: 18.1 pg
MCHC [8]: 38%
MCV [8]: 47.6 fL
Mono [8]: 8%
PT [8]: 15.1 s
RBC [8]: 301.5 x10_4/ul
Ret [8]: 0.2%
WBC [8]: 44.9 x10_2/uL
KIDNEY_L [6]: 1 g
KIDNEY_R [6]: 1 g
KIDNEY_TOTAL [6]: 2 g
KIDNEY_L [7]: 1 g
KIDNEY_R [7]: 1 g
KIDNEY_TOTAL [7]: 2 g
KIDNEY_L [8]: 1.4 g
KIDNEY_R [8]: 1.4 g
KIDNEY_TOTAL [8]: 2.8 g
ALP [6]: 963 IU/L
AST [6]: 66.6 IU/L
CRE [6]: 0.2 mg/dL
DBIL [6]: 0 mg/dL
GLC [6]: 199.6 mg/dL
IP [6]: 7.3 mg/dL
K [6]: 4.5 meq/L
Na [6]: 142.8 meq/L
PL [6]: 170.4 mg/dL
RALB [6]: 3 g/dL
TBIL [6]: 0.018 mg/dL
TC [6]: 88.8 mg/dL
TG [6]: 110.2 mg/dL
TP [6]: 5.6 g/dL
gamma-GTP [6]: 1.6 IU/L
ALP [7]: 635.6 IU/L
AST [7]: 56.4 IU/L
CRE [7]: 0.2 mg/dL
DBIL [7]: 0.002 mg/dL
GLC [7]: 200.8 mg/dL
K [7]: 4.1 meq/L
Na [7]: 142 meq/L
RALB [7]: 2.9 g/dL
TBIL [7]: 0.032 mg/dL
TC [7]: 90.8 mg/dL
TG [7]: 110.4 mg/dL
TP [7]: 5.4 g/dL
gamma-GTP [7]: 1.4 IU/L
ALP [8]: 339 IU/L
AST [8]: 39.5 IU/L
CRE [8]: 0.2 mg/dL
DBIL [8]: 0 mg/dL
GLC [8]: 197 mg/dL
IP [8]: 5.6 mg/dL
K [8]: 3.9 meq/L
Na [8]: 141.5 meq/L
PL [8]: 357.5 mg/dL
RALB [8]: 1.6 g/dL
TBIL [8]: 0 mg/dL
TC [8]: 233 mg/dL
TG [8]: 309 mg/dL
TP [8]: 4.5 g/dL
gamma-GTP [8]: 14.5 IU/L
